“Also recorded” adds a separate entry of the source.
Legend:
relapsed RH4 xenografts = assay: Relapsed RH4 xenograft model, re-treatment; type: in vivo, mice; conditions: re-treatment on day 52, 59 and 66, Taxol 30 mg/kg or Abraxane 50 mg/kg
Excerpt: Tumor growth was monitored.

phospho-histone H3 [1] = assay: Immunohistochemistry of SK-N-BE(2) xenografts, mitotic marker; type: in vivo, mice; conditions: different dosages of Abraxane; Taxol 20 mg/kg/weekly; end of study
cleaved caspase-3 = assay: Immunohistochemistry of SK-N-BE(2) xenografts, apoptotic marker; type: in vivo, mice; conditions: different dosages of Abraxane; Taxol 20 mg/kg/weekly; end of study
RH4 xenograft = assay: RH4 rhabdomyosarcoma subcutaneous xenograft model; conditions: for local relapse-free interval: RH4 model
Method: Briefly, tumor cells were washed three times with HBSS before injection. Mice were given a subcutaneous injection of 1×10^6 tumor cells. Tumor growth was measured weekly in two dimensions using a digital caliper, and tumor volume was calculated as width^2×length×0.5. Once the tumor diameter reached 0.5 cm, mice were randomized into treatment groups with 10 animals in each group. […] Taxol® was administered i.v. at 20 or 30 mg/kg weekly. Control mice received saline. Tumor volume, mouse body weight and signs of animal distress were evaluated twice or three times a week for any potential drug toxicity. Animals were sacrificed once the tumor size reached 1.5 cm^3.
Tumor volume was measured and calculated as width^2×length×0.5. […] Drugs were given on day 52, 59 and 66 with the same schedule and dosage as above. Tumor growth was monitored.

phospho-histone H3 [2] = assay: Immunohistochemistry of RH4 xenografts, mitotic marker; type: in vivo, mice; conditions: 48 hours after Abraxane 50 mg/kg iv or Taxol 30 mg/kg iv
Excerpt: Similarly, RH4 xenografts were harvested and analyzed by IHC for phosphor-histone H3.

RD xenograft = assay: RD rhabdomyosarcoma xenograft model; type: in vivo, mice; conditions: Taxol 30 mg/kg weekly, Abraxane 50 mg/kg weekly
Method: Control mice received saline.
Tumor growth was assessed in RD xenograft model with paclitaxel/Abraxane treatment. In Abraxane treatment group, tumor-bearing mice received Abraxane (50 mg/kg, weekly) treatment. In paclitaxel treatment group, since tumor sizes are reaching the endpoint after 2-week paclitaxel treatment in paclitaxel group, those mice were randomized into two groups with 5 animals in each group on day 15: one group of animals continued receiving 30 mg/kg of paclitaxel and the other group received 50 mg/kg of Abraxane instead.

[3] = system: A673 Ewing's sarcoma cells; assay: A673 Ewing sarcoma subcutaneous xenograft; type: in vivo, mice; conditions: gemcitabine 100 mg/kg i.p. twice weekly with nab-paclitaxel
Method: (§1) Briefly, 5×10^6143.98.2 osteosarcoma cells or A673 Ewing's sarcoma cells were suspended in 100 μl PBS and implanted subcutaneously with 33% Matrigel in 5-6 week-old female athymic nu/nu mice. Tumor volume was calculated using the formula L·W2·(π/6), where L=the longest tumor diameter and W=the widest tumor diameter perpendicular to L. When tumors reached 200-300 mm^3, animals were treated with either saline control, nab-paclitaxel 30 mg/kg intravenously on days 1-5 for a single course, gemcitabine 100 mg/kg intraperitoneally twice weekly until death, or the combination of nab-paclitaxel and gemcitabine. Mice were sacrificed once tumors reached 10% body weight (˜2500 mm^3).
(§2) To perform statistical analysis, it was calculated that a sample of 10 mice per group would provide an 80% power to detect a difference in tumor size of 41%, Power was calculated at a significance level of 0.05 using a two-tailed, two sample Student's t-test assuming equal variance. GraphPad Prism 5 software was used to analyze survival by log-rank and tumor growth by two sample Student's t-test.

[4] = system: 143.98.2 osteosarcoma cells; type: in vivo; conditions: nab-paclitaxel 30 mg/kg i.v. days 1-5; gemcitabine 100 mg/kg i.p. twice weekly; p=0.031 combination vs nab-paclitaxel alone
Method: as §1, §2

[5] = dosing on days 1, 8 and 15, Taxol 30 mg/kg, Abraxane 50 mg/kg

Structure (SMILES) | response of tumors relapsed after Taxol (paclitaxel) treatment (relapsed RH4 xenografts) | response of tumors relapsed after Taxol (paclitaxel) treatment (relapsed RH4 xenografts; listed as paclitaxel) | phospho-histone H3 positive cells (phospho-histone H3 [1]) | apoptotic cell population (cleaved caspase-3 staining) (cleaved caspase-3) | animals that developed relapsed tumors (RH4 xenograft; 7 animals per group) | tumor growth (tumor volume) (RH4 xenograft; Abraxane 50 mg/kg, Taxol 30 mg/kg i.v. weekly) | local relapse-free interval (RH4 xenograft) [days] | local relapse-free interval (RH4 xenograft; listed as paclitaxel) [days] | mice that died (RH4 xenograft; Taxol 30 mg/kg group, Day 10) | complete regression observed after day (RH4 xenograft; [5]) [days] | time to tumor relapse after complete regression (RH4 xenograft; [5]) [days] | phospho-histone H3 positive cells (phospho-histone H3 [2]) | tumor growth (tumor volume) (RD xenograft) | additive benefit of gemcitabine added to nab-paclitaxel [3] | tumor growth [4]
CC(=O)O[C@H]1C(=O)[C@@]2(C)[C@H]([C@H](OC(=O)c3ccccc3)[C@]3(O)C[C@H](OC(=O)[C@H](O)[C@@H](NC(=O)c4ccccc4)c4ccccc4)C(C)=C1C3(C)C)[C@]1(OC(C)=O)CO[C@@H]1C[C@@H]2O [Taxol®, paclitaxel] | drug resistant against Taxol® | paclitaxel-resistant | only slightly increased phospho-histone H3 positive cells | only slightly increased apoptosis in tumors | all Taxol® treated animals demonstrated tumor relapse | significantly inhibited RH4 tumor growth, with tumor regression observed after the 2nd dosage on day 8 | 13.6 ± 2.07 | 34 | 1 out of 7 | > 31 | 11 to 15 | Significant increased population of phospho-histone H3 positive cells | slow the growth of RD tumors, but those tumors grew progressively with no signs of tumor regression; also recorded: significantly inhibited tumor growth |  | 
Nc1ccn([C@@H]2O[C@H](CO)[C@@H](O)C2(F)F)c(=O)n1 [gemcitabine] |  |  |  |  |  |  |  |  |  |  |  |  |  | no additive benefit | appeared additive

— patent publication US20160015817A1, “METHODS OF TREATMENT OF PEDIATRIC SOLID TUMOR” (priority 2013, published 2016)
